These results are taken from patent US9828375B2, “4-position substituted pyrazolopyrimidine derivative, and use thereof in drug preparation” (Guangxi Wuzhou Pharmaceuticals (Group) Co., Ltd., priority 2012, dated 2017).

In experiment [1] the target is VEGFR2 (Homo sapiens, UniProt P35968). The experiment in a line: Kinase inhibition activity test, isotope labeling (γ-33P-ATP): VEGFR2. Type of experiment: biochemical. The note with it: test compound at a concentration of 10 μM; for inhibition at 10 µM: read-out: Activity inhibition rate VEGFR2 (h). On the procedure:
(§1) The purpose of this experiment was to test the inhibitory activity of the compound of the invention for in vitro kinase with the isotope labeling method (the γ phosphate group on ATP was labeled). In this experiment, the in vitro activity inhibition of such kinases as FLT3, VEGFR2, FLT1, FLT4, RET, c-RAF, B-RAF, c-KIT, PDGFα, PDGFβ, FGFR2, FGFR1, EphA2, EphB2, SRC, ABL, ALK and Met was tested respectively. Staurosporine was reference molecule (or referred to as positive control). The kinase inhibition activity of the test compound was expressed by half-inhibitory concentration (IC50) or the kinase activity inhibition rate of the test compound at a concentration of 10 μM. The IC50 value could be obtained by calculating the kinase activity inhibition rate of the test compound at different concentrations.
(§2) 20 mM 3-(N-morpholinyl)propanesulfonic acid (MOPS); 1 mM ethylenediaminetetraacetic acid (EDTA), 0.01% Brij 35 (Brij-35), 5% glycerol, 0.1% mercaptoethanol, 1 mg/mL bovine serum albumin (BSA), 10 mM manganous dichloride solution (MnCl2), 0.1 mg/mL glutamic acid/tyrosine (4:1) polypeptide (poly(Glu, Tyr)4:1), 50 μM EAIYAAPFAKKK (substrate of FLT3), 0.33 mg/mL myelin basic protein (substrate of VEGFR2), 250 μM KKKSPGEYVNIEFG (substrate of FLT1(h)), 500 μM GGEEEEYFELVKKKK (substrate of FLT4(h)), 250 μM KKKSPGEYVNIEFG (substrate of RET), 0.66 mg/mL myelin basic protein (substrate of C-RAF), 250 μM GGMEDIYFEFMGGKKK (substrate of c-Kit), 250 μM GGMEDIYFEFMGGKKK (substrate of PDGFα), 250 μM KKKSPGEYVNIEFG (substrate of FGFR1), […] GGEEEEYFELVKKKK (substrate of SRC), 50 μM EAIYAAPFAKKK (substrate of ABL), 250 μM KKKSPGEYVNIEFG (substrate of ALK), 250 μM KKKSPGEYVNIEFG (substrate of Met(h)), 10 mM magnesium acetate and γ-^33 P-ATP solution, stop buffer (3% phosphate buffer), washing buffer (75 mM phosphate solution), methanol, Filtermat A membrane, FLT3, VEGFR2, FLT3, VEGFR2, FLT1, FLT4, RET, c-RAF, B-RAF, c-KIT, PDGFRα, PDGFRβ, FGFR2, FGFR1, EphA2, EphB2, SRC, ABL, ALK, Met and other kinases, and the test compounds.
(§3) Buffers (8 mM MOPS with pH value of 7.0, 0.2 mM EDTA and 10 mM MnCl2), (5-10 mU) kinases to be tested (FLT3, VEGFR2, FLT1, FLT4, RET, c-RAF, B-RAF, c-KIT, PDGFRα, PDGFRβ, FGFR2, FGFR1, EphA2, EphB2, SRC, ABL, ALK and Met), substrates of kinases to be tested (refer to experimental materials), 10 mM magnesium acetate and γ-^33 P-ATP solution, and test compounds at different concentrations were added to a reaction tube orderly. […] Reaction was terminated with 5 μL 3% phosphate buffer finally, and 10 μL reaction solution was titrated to the Filtermat A membrane; solution was washed for 3 times with 75 mM phosphate solution with each time lasting 5 minutes, and then washed once with methanol. Finally, the Filtermat A membrane was dried, and scintillation counting was performed on the membrane, with scintillation count reflecting the phosphorylation degree of the substrates, so that the activity inhibition of kinase could be characterized.

Experiment [2] deals with PDGFRα (Homo sapiens, UniProt P16234). Put plainly: Kinase inhibition activity test, isotope labeling: PDGFRα. Type of experiment: biochemical. The note with it: test compound at a concentration of 10 μM; for inhibition at 10 µM: read-out: Activity inhibition rate PDGFRα (h). On the procedure: as §1, §2, §3
Chain of PDGFRα (P16234 24-1089): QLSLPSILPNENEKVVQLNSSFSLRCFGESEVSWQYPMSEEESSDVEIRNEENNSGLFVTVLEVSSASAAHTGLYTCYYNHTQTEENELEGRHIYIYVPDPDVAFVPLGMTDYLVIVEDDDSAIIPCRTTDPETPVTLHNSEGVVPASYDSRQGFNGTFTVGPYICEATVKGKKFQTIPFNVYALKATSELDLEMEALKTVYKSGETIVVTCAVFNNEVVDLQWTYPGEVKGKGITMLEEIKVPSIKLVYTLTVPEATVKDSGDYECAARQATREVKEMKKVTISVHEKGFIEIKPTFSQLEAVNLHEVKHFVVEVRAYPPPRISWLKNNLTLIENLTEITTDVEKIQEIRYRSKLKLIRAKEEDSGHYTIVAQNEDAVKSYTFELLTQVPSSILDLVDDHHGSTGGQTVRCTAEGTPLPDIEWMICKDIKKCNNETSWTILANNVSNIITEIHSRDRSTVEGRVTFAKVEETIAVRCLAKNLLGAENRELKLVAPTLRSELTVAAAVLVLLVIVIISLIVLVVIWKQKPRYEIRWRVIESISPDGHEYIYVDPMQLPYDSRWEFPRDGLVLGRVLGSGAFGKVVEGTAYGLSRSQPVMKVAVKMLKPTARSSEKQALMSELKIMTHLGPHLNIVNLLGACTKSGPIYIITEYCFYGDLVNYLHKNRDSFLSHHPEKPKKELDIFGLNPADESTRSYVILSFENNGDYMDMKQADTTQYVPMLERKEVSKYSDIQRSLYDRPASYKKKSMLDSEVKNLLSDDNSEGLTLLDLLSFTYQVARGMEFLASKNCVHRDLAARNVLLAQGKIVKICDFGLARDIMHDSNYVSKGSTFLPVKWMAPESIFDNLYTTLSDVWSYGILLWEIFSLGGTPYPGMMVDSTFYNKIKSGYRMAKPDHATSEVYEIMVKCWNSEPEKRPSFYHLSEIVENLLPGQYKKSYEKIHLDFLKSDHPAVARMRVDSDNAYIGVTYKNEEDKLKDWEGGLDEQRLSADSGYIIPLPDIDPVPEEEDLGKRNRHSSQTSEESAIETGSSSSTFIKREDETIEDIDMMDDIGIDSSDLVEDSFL
Experiment [3] concerns the target FGFR2 (Homo sapiens, UniProt P21802). Put plainly: Kinase inhibition activity test, isotope labeling: FGFR2. The format is biochemical. The note with it: test compound at a concentration of 10 μM; for inhibition at 10 µM: read-out: Activity inhibition rate FGFR2 (h). Here is the method: as §1, §2, §3
Experiment [4] deals with human leukemia cell line MV4-11. The experiment in a line: In vitro tumor cell proliferation inhibition (MTT): MV4-11. The format is cell-based. An outline of the steps:
(§4)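 Readout was MTT colorimetry at 570 nm after DMSO solubilisation, following 72 h compound treatment at graded doses in 0.1% DMSO. Wells held 1-2×10^4 cells/mL plated the day before; triplicates, experiment repeated at least 3 times, results as IC50 or inhibition rate.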

In experiment [5] the test system is human pancreatic carcinoma cell line panc-1. Put plainly: In vitro tumor cell proliferation inhibition (MTT): panc-1. The format is cell-based. An outline of the steps: as §4

By inhibition is commonly meant the percentage by which the read-out fell short of the control. As a reminder, the IC50 is the midpoint of a concentration-inhibition curve.

Chain of VEGFR2 (P35968 20-1356): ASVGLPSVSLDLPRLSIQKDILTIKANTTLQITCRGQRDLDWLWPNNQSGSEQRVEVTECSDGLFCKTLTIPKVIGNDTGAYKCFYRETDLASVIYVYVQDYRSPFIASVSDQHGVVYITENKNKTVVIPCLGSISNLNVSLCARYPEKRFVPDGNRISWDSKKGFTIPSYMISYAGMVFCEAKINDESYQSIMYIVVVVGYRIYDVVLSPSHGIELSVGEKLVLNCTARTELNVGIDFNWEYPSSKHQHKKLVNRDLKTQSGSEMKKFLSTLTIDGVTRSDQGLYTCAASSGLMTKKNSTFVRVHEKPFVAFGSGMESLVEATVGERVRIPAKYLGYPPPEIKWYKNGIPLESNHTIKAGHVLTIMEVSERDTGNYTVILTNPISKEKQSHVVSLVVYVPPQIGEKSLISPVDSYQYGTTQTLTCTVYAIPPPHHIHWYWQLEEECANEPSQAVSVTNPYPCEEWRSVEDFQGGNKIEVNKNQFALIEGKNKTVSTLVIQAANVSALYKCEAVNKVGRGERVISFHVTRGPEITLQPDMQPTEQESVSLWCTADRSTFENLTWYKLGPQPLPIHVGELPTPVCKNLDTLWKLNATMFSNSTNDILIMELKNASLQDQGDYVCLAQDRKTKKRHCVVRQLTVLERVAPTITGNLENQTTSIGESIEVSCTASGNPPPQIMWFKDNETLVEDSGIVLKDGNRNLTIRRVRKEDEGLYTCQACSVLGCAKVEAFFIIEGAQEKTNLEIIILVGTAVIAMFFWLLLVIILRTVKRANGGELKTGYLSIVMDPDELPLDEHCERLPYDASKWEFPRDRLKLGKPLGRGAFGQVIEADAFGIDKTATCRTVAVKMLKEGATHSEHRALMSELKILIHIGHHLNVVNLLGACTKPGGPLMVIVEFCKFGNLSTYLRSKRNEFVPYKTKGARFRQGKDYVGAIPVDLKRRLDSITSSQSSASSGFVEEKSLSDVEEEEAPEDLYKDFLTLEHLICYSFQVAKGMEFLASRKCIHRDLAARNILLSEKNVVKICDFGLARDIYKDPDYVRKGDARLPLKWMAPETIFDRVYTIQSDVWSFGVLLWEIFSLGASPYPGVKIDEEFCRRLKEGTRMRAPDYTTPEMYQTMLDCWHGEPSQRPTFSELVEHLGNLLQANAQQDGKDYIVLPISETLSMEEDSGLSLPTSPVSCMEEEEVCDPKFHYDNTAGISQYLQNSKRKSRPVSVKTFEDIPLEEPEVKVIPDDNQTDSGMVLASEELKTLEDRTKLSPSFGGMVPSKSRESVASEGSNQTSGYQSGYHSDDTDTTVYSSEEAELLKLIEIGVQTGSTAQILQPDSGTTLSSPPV
Chain of FGFR2 (P21802 22-821): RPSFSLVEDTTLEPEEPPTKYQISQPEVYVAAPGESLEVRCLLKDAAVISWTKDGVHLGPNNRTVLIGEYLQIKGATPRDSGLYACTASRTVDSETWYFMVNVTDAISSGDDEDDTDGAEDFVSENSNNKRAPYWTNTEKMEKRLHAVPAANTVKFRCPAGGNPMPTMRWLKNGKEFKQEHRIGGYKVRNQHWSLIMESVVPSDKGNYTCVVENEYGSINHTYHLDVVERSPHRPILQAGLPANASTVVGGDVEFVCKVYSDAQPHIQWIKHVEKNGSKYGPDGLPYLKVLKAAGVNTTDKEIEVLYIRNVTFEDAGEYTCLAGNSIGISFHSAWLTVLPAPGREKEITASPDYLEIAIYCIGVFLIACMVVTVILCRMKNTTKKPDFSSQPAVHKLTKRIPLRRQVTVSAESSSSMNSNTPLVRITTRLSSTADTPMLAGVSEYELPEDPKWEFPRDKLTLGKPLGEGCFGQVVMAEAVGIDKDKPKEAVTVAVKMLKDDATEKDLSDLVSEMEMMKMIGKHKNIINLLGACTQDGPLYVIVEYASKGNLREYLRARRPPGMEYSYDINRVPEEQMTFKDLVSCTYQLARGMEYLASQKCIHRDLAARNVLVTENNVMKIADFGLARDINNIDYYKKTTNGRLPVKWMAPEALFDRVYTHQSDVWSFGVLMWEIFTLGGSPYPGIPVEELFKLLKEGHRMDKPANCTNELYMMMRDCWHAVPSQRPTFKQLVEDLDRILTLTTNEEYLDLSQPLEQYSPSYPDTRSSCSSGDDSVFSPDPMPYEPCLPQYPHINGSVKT

For the compound `COc1cccc(NC(=O)Nc2ccc(Nc3ncnc4[nH]ncc34)cc2)c1` [4b-3], the inhibition at 10 µM in experiment [1] was 96%; in experiment [2] it was more than 30%; in experiment [3], 45%. Also, the IC50 in experiment [4] (Homo sapiens, MV4-11, 72 h) is 1650 nM; in experiment [5] (Homo sapiens, PANC-1, 72 hours), less than 50000 nM.
Take `C[C@H](NC(=O)Nc1ccc(Nc2ncnc3[nH]ncc23)cc1)c1ccccc1` [4b-4]: the “Activity inhibition rate VEGFR2 (h)” value in experiment [1] (10 µM) was 94%. Moreover, the “Activity inhibition rate PDGFRα (h)” value in experiment [2] is listed as more than 30%. Besides, the “Activity inhibition rate FGFR2 (h)” value in experiment [3] (10 µM) was 32%. For the same compound, the IC50 in experiment [4] (72 hours) is 2050 nM; in experiment [5] (72 hours), less than 50000 nM.
For `COc1ccc(NC(=O)Nc2ccc(NC(=O)N3C=NC=C4NNC=C43)cc2)cc1` [4b-6, 1-(4-(1H-pyrazolopyrimidine-4-amido)phenyl)-3-(4-methoxyphenyl)urea], the inhibition at 10 µM in experiment [1] is 95%; in experiment [2] it was more than 30%; in experiment [3], 32%. Moreover, the IC50 in experiment [4] (Homo sapiens, MV4-11, 72 h) is 729 nM; in experiment [5] (Homo sapiens, PANC-1, 72 hours) it was less than 50000 nM.
The like results for `Cc1cc(C)c(NC(=O)Nc2ccc(NC(=O)N3C=NC=C4NNC=C43)cc2)c(C)c1` [4b-7, 1-(4-(1H-pyrazolopyrimidine-4-amido)phenyl)-3-(2,4,6-trimethylphenyl)urea] were, in that order, 92%, more than 30%, 69%, 667 nM and less than 50000 nM.
The like results for `O=C(Nc1ccc(Sc2ncnc3[nH]ncc23)cc1)Nc1ccc(C(F)(F)F)cc1` [4c-1] were, in that order, 100%, more than 50%, more than 50%, 12 nM and less than 50000 nM.
On to `O=C(Nc1ccc(Sc2ncnc3[nH]ncc23)cc1)Nc1cccc(C(F)(F)F)c1` [4c-2], for which the “Activity inhibition rate VEGFR2 (h)” value in experiment [1] stood at 100%. The “Activity inhibition rate PDGFRα (h)” value in experiment [2] is reported as more than 50%. In addition, the “Activity inhibition rate FGFR2 (h)” value in experiment [3] was more than 50%. In addition, the figures for the IC50 in experiment [4] (72 hours) and in experiment [5] (72 hours) were 39 nM and less than 50000 nM, respectively.
Take `CC(C)(C)c1cc(NC(=O)Nc2ccc(Sc3ncnc4[nH]ncc34)cc2)no1` [4c-3, 1-(4-(1H-pyrazolopyrimidine-4-sulfydryl)phenyl)-3-(5-tert-butylisoxazol-3-yl)urea]: the “Activity inhibition rate VEGFR2 (h)” value in experiment [1] is 100%. Besides, in experiment [2], the “Activity inhibition rate PDGFRα (h)” value was more than 50%. Also, in experiment [3], the “Activity inhibition rate FGFR2 (h)” value is given as more than 50%. In addition, the results for the IC50 in experiment [4] (72 hours) and in experiment [5] (72 hours) were less than 1000 nM and less than 50000 nM, respectively.
For `CC(C)n1ncc2c(Oc3ccc(NC(=O)Nc4cc(C(C)(C)C)on4)cc3)ncnc21` [5a-4, 1-(5-tert-butylisoxazol-3-yl)-3-(4-(1-isopropyl-(1H-pyrazolopyrimidine-4-yl)oxy)phenyl)urea], the inhibition at 10 µM in experiment [1] is more than 90%; in experiment [2], more than 30%; in experiment [3], more than 30%. In addition, the IC50 in experiment [4] (Homo sapiens, MV4-11, 72 h) was less than 1000 nM; in experiment [5] (Homo sapiens, PANC-1, 72 hours) it was less than 50000 nM.
